{"source": "ChEMBL document CHEMBL4420080", "about": "“Inhibitors of sox18 protein activity for treating angiogenesis- and/or lymphangiogenesis-related diseases” (2018)", "key": {"[1]": {"molecular_target": "hERG (KCNH2) (Homo sapiens, UniProt Q12809)", "assay": "Inhibition of human ERG at 10 uM relative to control"}, "[2]": {"molecular_target": "Neuronal acetylcholine receptor (Homo sapiens) (UniProt P17787+P30926+P32297+P43681+Q15822+Q9UGM1+Q15825+P30532+P36544+Q9GZZ6+Q05901)", "assay": "Inhibition of human nAChR at 10 uM relative to control"}, "[3]": {"molecular_target": "Transcription factor Jun (Homo sapiens) (UniProt P05412)", "sequence (P05412 whole entry)": "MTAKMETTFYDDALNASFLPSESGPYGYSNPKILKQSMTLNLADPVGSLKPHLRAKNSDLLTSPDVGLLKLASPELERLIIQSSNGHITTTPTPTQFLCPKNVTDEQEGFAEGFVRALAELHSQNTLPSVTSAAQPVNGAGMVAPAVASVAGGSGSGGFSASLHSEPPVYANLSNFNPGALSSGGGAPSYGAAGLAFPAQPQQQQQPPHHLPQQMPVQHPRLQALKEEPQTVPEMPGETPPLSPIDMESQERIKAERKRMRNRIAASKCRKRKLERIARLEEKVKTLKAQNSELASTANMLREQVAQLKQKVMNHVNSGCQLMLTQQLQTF", "assay": "Inhibition of c-JUN in HUVEC assessed as reduction of c-JUN transcriptional activity by genome-wide RNA-seq and ChlP-seq analysis", "assay_type": "cell-based"}, "[4]": {"system": "Danio rerio", "assay": "Induction of arterial and venous genes dys-regulation in zebrafish larvae harboring fli1 a:eGFP,-6.5kdrl:mCherry assessed as effect on efnb2a gene expression at 1.5 uM dosed starting from 16 hpf and measured at 24 and 48 hpf by qRT-PCR analysis", "assay_type": "functional, organism-based"}, "[5]": {"molecular_target": "Endothelial transcription factor GATA-2 (Homo sapiens) (UniProt P23769)", "assay": "Inhibition of GATA2 in HUVEC assessed as reduction of GATA2 transcriptional activity by genome-wide RNA-seq and ChlP-seq analysis", "assay_type": "cell-based"}, "[6]": {"system": "Danio rerio", "assay": "Induction of arterial and venous genes dys-regulation in zebrafish larvae harboring fli1 a:eGFP,-6.5kdrl:mCherry assessed as effect on notch1b gene expression at 1.5 uM dosed starting from 16 hpf and measured at 24 and 48 hpf by qRT-PCR analysis", "assay_type": "functional, organism-based"}, "[7]": {"molecular_target": "Beta-1 adrenergic receptor (Homo sapiens) (UniProt P08588)", "sequence (P08588 whole entry, looked up)": "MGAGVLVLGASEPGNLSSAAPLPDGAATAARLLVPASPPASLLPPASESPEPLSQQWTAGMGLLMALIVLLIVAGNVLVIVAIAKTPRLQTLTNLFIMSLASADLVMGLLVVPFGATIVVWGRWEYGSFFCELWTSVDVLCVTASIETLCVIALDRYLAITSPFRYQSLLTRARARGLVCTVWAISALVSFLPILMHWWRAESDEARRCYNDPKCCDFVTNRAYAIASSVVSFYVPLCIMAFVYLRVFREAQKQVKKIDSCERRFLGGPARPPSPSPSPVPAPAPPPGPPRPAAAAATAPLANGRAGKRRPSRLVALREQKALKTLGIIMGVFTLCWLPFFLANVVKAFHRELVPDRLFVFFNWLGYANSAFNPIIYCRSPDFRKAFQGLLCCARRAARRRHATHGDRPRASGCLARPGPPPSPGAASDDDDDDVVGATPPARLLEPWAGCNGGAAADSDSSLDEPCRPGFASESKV", "assay": "Inhibition of human adrenergic beta1 receptor at 10 uM relative to control"}, "[8]": {"molecular_target": "Transcription factor SOX-9 (Homo sapiens) (UniProt P48436)", "assay": "Inhibition of SOX9 (unknown origin) expressed in African green monkey COS7 cells assessed as reduction in SOX9 transcriptional activity at", "assay_type": "cell-based"}, "[9]": {"species": "Rattus norvegicus", "assay": "Inhibition of rat imidazoline I2 receptor at 10 uM relative to control"}, "[10]": {"molecular_target": "Adenosine receptor A1 (Homo sapiens) (UniProt P30542)", "assay": "Inhibition of human adenosine A1 receptor at 10 uM relative to control"}, "[11]": {"system": "4T1.2", "assay": "Inhibition of tumor induced vascular response in mouse 4T1.2 cells implanted BALB/c mouse assessed as reduction in volume of the blood vessels in tumor region at 25 mg/kg/day for 10 days by ERG/EMCN-detection based immunofluorescent staining relative to control", "assay_type": "functional", "conditions": "4T1.2, 240 h"}, "[12]": {"molecular_target": "Alpha-2A adrenergic receptor (Homo sapiens) (UniProt P08913)", "sequence (P08913 whole entry)": "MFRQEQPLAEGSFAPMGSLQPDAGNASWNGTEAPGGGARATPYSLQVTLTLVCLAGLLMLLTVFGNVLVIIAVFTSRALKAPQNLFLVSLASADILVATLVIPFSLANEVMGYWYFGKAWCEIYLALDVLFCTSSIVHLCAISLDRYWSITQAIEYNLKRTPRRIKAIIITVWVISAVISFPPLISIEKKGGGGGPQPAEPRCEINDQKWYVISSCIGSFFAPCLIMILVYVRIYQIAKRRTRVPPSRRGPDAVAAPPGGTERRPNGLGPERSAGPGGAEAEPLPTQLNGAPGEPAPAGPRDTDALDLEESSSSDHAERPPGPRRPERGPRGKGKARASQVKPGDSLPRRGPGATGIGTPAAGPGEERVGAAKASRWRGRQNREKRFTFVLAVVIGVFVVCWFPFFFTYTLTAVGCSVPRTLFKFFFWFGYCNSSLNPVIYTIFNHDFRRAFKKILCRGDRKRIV", "assay": "Inhibition of human adrenergic alpha2A receptor at 10 uM relative to control"}, "[13]": {"species": "Rattus norvegicus", "assay": "Inhibition of rat rolipram binding site at 10 uM relative to control"}, "[14]": {"system": "4T1.2", "assay": "Antitumor activity against mouse 4T1.2 cells implanted in BALB/c mouse undergoing sham surgery without excising tumor on day 12 assessed as effect on mouse survival at 25 mg/kg/day for 10 days", "assay_type": "functional, organism-based"}, "[15]": {"molecular_target": "Glutamate NMDA receptor (Rattus norvegicus) (UniProt P35439+Q00959+Q00960+Q00961+Q62645+Q8VHN2+Q9R1M7)", "assay": "Inhibition of rat NMDA glutamate receptor at 10 uM relative to control", "assay_type": "protein-complex assay"}, "[16]": {"molecular_target": "GABA-A receptor; anion channel (Rattus norvegicus) (UniProt O09028+P15431+P18506+P18508+P19969+P20236+P23574+P23576+P28471+P28473+P30191+P62813+P63079+P63138+Q91ZM7+Q9ES14)", "assay": "Inhibition of rat GABAA channel flunitrazepam binding site at 10 uM relative to control", "assay_type": "protein-complex assay"}, "[17]": {"system": "Danio rerio", "assay": "Induction of arterial and venous genes dys-regulation in zebrafish larvae harboring fli1 a:eGFP,-6.5kdrl:mCherry assessed as effect on cdh5 gene expression at 1.5 uM dosed starting from 16 hpf and measured at 24 and 48 hpf by qRT-PCR analysis", "assay_type": "functional, organism-based"}, "[18]": {"system": "Danio rerio", "assay": "Induction of arterial and venous genes dys-regulation in zebrafish larvae harboring fli1 a:eGFP,-6.5kdrl:mCherry assessed as effect on Ilt4 gene expression at 1.5 uM dosed starting from 16 hpf and measured at 24 and 48 hpf by qRT-PCR analysis", "assay_type": "functional, organism-based"}, "[19]": {"molecular_target": "Glucocorticoid receptor (Homo sapiens) (UniProt P04150)", "assay": "Inhibition of human glucocorticoid receptor at 10 uM relative to control"}, "[20]": {"molecular_target": "Protein deacetylase HDAC6 (Homo sapiens) (UniProt Q9UBN7)", "sequence (Q9UBN7 whole entry)": "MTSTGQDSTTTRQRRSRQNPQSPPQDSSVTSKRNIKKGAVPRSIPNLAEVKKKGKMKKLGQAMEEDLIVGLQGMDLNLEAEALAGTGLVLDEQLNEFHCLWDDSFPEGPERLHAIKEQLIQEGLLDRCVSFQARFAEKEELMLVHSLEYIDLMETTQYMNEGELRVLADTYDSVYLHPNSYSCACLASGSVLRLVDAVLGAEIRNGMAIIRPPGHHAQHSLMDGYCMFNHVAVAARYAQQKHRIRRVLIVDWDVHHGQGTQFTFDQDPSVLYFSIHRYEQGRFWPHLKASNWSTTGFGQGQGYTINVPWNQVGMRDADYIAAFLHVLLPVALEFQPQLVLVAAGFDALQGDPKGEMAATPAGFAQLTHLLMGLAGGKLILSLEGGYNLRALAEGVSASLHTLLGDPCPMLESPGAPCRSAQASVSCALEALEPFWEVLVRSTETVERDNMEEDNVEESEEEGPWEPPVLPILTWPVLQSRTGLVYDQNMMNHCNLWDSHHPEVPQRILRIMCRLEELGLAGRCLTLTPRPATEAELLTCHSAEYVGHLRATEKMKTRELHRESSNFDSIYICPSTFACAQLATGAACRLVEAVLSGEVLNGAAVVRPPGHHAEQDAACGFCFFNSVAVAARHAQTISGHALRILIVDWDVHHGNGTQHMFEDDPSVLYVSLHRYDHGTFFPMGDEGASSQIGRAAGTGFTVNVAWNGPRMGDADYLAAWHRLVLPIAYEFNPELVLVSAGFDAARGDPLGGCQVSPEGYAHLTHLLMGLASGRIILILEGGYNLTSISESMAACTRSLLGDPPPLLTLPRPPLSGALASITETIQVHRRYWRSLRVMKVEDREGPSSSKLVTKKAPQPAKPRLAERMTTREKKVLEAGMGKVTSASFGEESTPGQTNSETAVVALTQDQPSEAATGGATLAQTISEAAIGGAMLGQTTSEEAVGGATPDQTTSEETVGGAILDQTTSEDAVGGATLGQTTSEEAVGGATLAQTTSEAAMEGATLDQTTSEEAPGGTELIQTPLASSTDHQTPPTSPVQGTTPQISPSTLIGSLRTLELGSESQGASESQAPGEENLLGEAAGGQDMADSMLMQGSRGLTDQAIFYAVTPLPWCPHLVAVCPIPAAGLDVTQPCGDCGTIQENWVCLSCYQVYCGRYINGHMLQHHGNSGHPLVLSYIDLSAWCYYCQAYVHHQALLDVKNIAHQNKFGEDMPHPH", "assay": "Inhibition of human HDAC6 at 10 uM relative to control"}, "[21]": {"molecular_target": "NAD-dependent protein deacetylase sirtuin-1 (Homo sapiens) (UniProt Q96EB6)", "assay": "Inhibition of human Sirtuin1 at 10 uM relative to control"}, "[22]": {"molecular_target": "Beta-2 adrenergic receptor (Homo sapiens) (UniProt P07550)", "sequence (P07550 whole entry, looked up)": "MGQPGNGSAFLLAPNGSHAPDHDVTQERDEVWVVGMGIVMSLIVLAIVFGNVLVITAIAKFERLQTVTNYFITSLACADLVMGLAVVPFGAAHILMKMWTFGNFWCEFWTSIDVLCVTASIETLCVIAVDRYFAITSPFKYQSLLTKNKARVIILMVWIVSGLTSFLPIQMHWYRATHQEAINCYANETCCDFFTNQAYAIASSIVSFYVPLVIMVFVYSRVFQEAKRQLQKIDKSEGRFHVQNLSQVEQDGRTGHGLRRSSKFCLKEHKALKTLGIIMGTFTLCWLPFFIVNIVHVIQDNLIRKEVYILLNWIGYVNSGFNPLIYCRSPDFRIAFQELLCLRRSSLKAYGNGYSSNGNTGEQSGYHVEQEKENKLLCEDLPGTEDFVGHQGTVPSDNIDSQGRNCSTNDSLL", "assay": "Inhibition of human adrenergic beta2 receptor at 10 uM relative to control"}, "[23]": {"molecular_target": "Sigma non-opioid intracellular receptor 1 (Homo sapiens) (UniProt Q99720)", "assay": "Inhibition of human sigma1 receptor at 10 uM relative to control"}, "[24]": {"assay": "Plasma concentration in BALB/c mouse xenografted with mouse 4T1.2 cells at 25 mg/kg/day for 10 days measured at day 12", "assay_type": "ADME, organism-based"}, "[25]": {"assay": "Plasma concentration in BALB/c mouse xenografted with mouse 4T1.2 cells at 25 mg/kg/day for 10 days measured at day 7", "assay_type": "ADME, organism-based"}, "[26]": {"molecular_target": "Acetylcholine receptor subunit alpha (Homo sapiens) (UniProt P02708)", "sequence (P02708 whole entry)": "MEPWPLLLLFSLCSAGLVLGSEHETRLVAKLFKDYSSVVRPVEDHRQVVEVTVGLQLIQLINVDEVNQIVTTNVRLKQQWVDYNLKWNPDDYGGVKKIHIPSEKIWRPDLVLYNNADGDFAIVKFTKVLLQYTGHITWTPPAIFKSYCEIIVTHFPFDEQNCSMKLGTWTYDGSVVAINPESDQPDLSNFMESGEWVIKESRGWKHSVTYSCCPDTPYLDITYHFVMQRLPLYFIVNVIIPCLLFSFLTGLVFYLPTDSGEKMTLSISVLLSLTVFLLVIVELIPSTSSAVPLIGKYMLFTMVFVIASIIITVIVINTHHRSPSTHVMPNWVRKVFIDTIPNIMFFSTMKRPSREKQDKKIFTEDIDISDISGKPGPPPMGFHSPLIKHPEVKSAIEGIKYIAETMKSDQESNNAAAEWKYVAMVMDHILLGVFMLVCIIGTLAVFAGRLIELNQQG", "assay": "Inhibition of human nAChR alpha1 channel at 10 uM relative to control"}, "[27]": {"molecular_target": "Histone deacetylase 4 (Homo sapiens) (UniProt P56524)", "assay": "Inhibition of human HDAC4 at 10 uM relative to control"}, "[28]": {"molecular_target": "Cannabinoid receptor 1 (Homo sapiens) (UniProt P21554)", "sequence (P21554 whole entry)": "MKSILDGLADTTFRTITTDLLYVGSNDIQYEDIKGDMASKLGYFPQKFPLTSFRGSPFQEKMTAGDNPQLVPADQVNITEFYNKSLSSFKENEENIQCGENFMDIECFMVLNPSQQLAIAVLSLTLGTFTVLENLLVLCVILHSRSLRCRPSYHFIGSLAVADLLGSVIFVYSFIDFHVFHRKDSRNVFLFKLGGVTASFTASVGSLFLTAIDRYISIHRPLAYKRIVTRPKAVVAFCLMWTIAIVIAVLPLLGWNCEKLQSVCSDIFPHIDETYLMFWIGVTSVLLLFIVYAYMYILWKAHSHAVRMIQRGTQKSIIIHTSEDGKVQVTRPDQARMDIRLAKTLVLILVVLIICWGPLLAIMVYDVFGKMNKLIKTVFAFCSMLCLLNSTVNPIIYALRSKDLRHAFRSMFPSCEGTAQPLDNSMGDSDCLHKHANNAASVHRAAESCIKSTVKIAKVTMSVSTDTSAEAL", "assay": "Inhibition of human CB1 receptor at 10 uM relative to control"}, "[29]": {"molecular_target": "Androgen receptor (Homo sapiens) (UniProt P10275)", "assay": "Inhibition of human androgen receptor at 10 uM relative to control"}, "[30]": {"species": "Mus musculus", "assay": "Inhibition of mouse phorbol ester receptor at 10 uM relative to control"}, "[31]": {"system": "4T1.2", "assay": "Antitumor activity against mouse 4T1.2 cells implanted in BALB/c mouse assessed as median disease latency time at 5 to 50 mg/kg/day for 10 days and measured up to 60 days after tumor inoculation", "assay_type": "functional, organism-based"}, "[32]": {"system": "Danio rerio", "assay": "Induction of arterial and venous genes dys-regulation in zebrafish larvae harboring fli1 a:eGFP,-6.5kdrl:mCherry assessed as effect on hey1 gene expression at 1.5 uM dosed starting from 16 hpf and measured at 24 and 48 hpf by qRT-PCR analysis", "assay_type": "functional, organism-based"}, "[33]": {"molecular_target": "Thyroid Hormone Receptor (Rattus norvegicus) (UniProt P18113+P63059)", "sequence (P18113 whole entry, looked up)": "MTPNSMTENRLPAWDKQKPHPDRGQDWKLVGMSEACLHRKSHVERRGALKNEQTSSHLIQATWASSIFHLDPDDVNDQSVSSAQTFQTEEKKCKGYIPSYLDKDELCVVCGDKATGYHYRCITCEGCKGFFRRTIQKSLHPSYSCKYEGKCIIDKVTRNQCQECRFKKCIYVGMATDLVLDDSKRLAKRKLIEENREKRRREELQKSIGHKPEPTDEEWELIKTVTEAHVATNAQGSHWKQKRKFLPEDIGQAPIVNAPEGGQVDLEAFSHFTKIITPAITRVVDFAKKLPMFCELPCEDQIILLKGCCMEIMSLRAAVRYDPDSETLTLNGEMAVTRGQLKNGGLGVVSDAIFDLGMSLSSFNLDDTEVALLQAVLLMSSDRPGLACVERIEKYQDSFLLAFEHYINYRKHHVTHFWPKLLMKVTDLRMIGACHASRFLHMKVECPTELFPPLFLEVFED", "sequence (P63059 whole entry, looked up)": "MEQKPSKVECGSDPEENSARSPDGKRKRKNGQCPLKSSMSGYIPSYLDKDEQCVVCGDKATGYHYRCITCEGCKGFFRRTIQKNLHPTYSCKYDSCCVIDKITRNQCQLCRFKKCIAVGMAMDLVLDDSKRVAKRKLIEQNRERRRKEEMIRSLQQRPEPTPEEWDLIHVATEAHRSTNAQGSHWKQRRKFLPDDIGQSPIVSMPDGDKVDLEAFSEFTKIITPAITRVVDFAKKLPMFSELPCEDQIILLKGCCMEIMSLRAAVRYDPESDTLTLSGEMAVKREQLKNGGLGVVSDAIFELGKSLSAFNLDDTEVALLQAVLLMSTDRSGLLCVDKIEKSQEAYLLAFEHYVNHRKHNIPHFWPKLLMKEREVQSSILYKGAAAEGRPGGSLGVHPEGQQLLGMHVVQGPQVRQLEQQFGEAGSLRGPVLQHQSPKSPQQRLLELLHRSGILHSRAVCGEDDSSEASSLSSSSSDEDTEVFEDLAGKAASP", "assay": "Inhibition of rat thyroid hormone receptor at 10 uM relative to control", "assay_type": "protein assay"}, "[34]": {"system": "4T1.2", "assay": "Inhibition of tumor induced lymphangiogenesis response in mouse 4T1.2 cells implanted BALB/c mouse assessed as reduction in number of lymphatic endothelial cells at 25 mg/kg/day for 10 days by PROX1/podoplanin detection based immunofluorescent staining relative to control", "assay_type": "functional", "conditions": "4T1.2, 240 h"}}, "note": "The source made the active and inactive calls. The rule behind the calls is not given here.", "data": [{"smiles": "O=C(O)c1c(O)cccc1CCc1ccc2ccccc2c1", "values": [{"measurement": "inhibition at 10 µM", "setting": "[1]", "value": -14, "unit": "%"}, {"measurement": "inhibition", "setting": "[2]", "value": 3, "unit": "%"}, {"measurement": "inhibition", "setting": "[3]", "value": "inactive"}, {"measurement": "Activity", "setting": "[4]", "value": "Active"}, {"measurement": "inhibition", "setting": "[5]", "value": "inactive"}, {"measurement": "Activity", "setting": "[6]", "value": "Active"}, {"measurement": "inhibition", "setting": "[7]", "value": 6, "unit": "%"}, {"measurement": "inhibition", "setting": "[8]", "value": "inactive"}, {"measurement": "inhibition", "setting": "[9]", "value": 11, "unit": "%"}, {"measurement": "inhibition", "setting": "[10]", "value": -8, "unit": "%"}, {"measurement": "inhibition in vivo at 25 mg/kg/day", "setting": "[11]", "value": 55, "unit": "%"}, {"measurement": "inhibition", "setting": "[12]", "value": 0, "unit": "%"}, {"measurement": "inhibition", "setting": "[13]", "value": 1, "unit": "%"}, {"measurement": "Activity", "setting": "[14]", "value": "inactive"}, {"measurement": "inhibition", "setting": "[15]", "value": -5, "unit": "%"}, {"measurement": "inhibition", "setting": "[16]", "value": -6, "unit": "%"}, {"measurement": "Activity", "setting": "[17]", "value": "Active"}, {"measurement": "Activity", "setting": "[18]", "value": "Active"}, {"measurement": "inhibition", "setting": "[19]", "value": 12, "unit": "%"}, {"measurement": "inhibition", "setting": "[20]", "value": 1.1, "unit": "%"}, {"measurement": "inhibition", "setting": "[21]", "value": 0, "unit": "%"}, {"measurement": "inhibition", "setting": "[22]", "value": 2, "unit": "%"}, {"measurement": "inhibition", "setting": "[23]", "value": -6, "unit": "%"}, {"measurement": "concentration at 240 h", "setting": "[24]", "value": 55.2, "unit": "µg/mL"}, {"measurement": "concentration at 240 h", "setting": "[25]", "value": 38300, "unit": "ng/mL"}, {"measurement": "inhibition", "setting": "[26]", "value": -4, "unit": "%"}, {"measurement": "inhibition", "setting": "[27]", "value": 5.1, "unit": "%"}, {"measurement": "inhibition", "setting": "[28]", "value": 3, "unit": "%"}, {"measurement": "inhibition", "setting": "[29]", "value": 1, "unit": "%"}, {"measurement": "inhibition", "setting": "[30]", "value": 15, "unit": "%"}, {"measurement": "Activity", "setting": "[31]", "value": "Dose-dependent effect"}, {"measurement": "Activity", "setting": "[32]", "value": "Active"}, {"measurement": "inhibition", "setting": "[33]", "value": 36, "unit": "%"}, {"measurement": "inhibition in vivo at 25 mg/kg/day", "setting": "[34]", "value": 70, "unit": "%"}]}]}
